Reference: patent US10278931B2, “Composition for treatment of inflammatory bowel disease and atopic dermatitis” (INNOPHARMASCREEN INC., priority 2015, dated 2019)

What was measured:
[1] = test system: TSLP secretion from human mast cells (HMC-1 cells); assay: TSLP secretion ELISA in PMACI-stimulated mast cells; format: cell-based; conditions: PMACI-stimulated HMC-1 cells, ELISA
Method: (§1) (1) Cell culture: A human mast cell line (HMC-1) was cultured in an IMDM supplemented with 10% FBS at 37° C. and 5% CO2. Candidate materials were dissolved in DMSO, and then filtered using a 0.22 μm filter. The resulting candidate materials were diluted with DMSO and the HMC-1 cells were treated therewith.
(3) Enzyme-linked immunosorbent assay (ELISA): Mast cells (3×10^6 cells/ml) were stabilized for 1 hour, and then treated with 0.1 μM, 1 μM, and 10 μM of candidate materials, followed by treatment with PMACI for 8 hours. The mast cells were centrifuged to obtain supernatants. To measure the amount of TSLP secreted from the cells, ELISA was used. The ELISA was performed in 96-well plates coated with 1 μg/well of TSLP capture Ab. The coated plates were washed twice with PBS. The cells were treated with PBS containing 10% FBS for 2 hours. Thereafter, the cells were washed with PBS containing 0.05% Tween-20 (Sigma), and recombinant TSLP was used to draw a standard curve. Subsequently, the plates were exposed to a biotinylated-TSLP antibody, Avidin peroxidase, an ARTS substrate containing 30% H2O2, and then measured at 405 nm.

HMC-1 cells = assay: Cytotoxicity (MTT-assay) in HMC-1 cells; format: cell-based, human; conditions: 10 μM
Method: as §1
[…] After culturing, the medium was replaced by a fresh medium, 5 mg/ml of an MTT solution was then added thereto, and the mast cells were incubated at 37° C. for 4 hours. 250 DMSO was added to the mast cells, MTT formazan was extracted therefrom, and absorbance of each well was measured at 540 nm using an ELISA reader.

[2] = test system: balb/c mice with DNCB-induced atopic dermatitis; assay: DNCB-induced atopic dermatitis model; format: in vivo; conditions: 0.1% dexamethasone
Excerpt: (5) Reverse transcription-polymerase chain reaction (RT-PCR) quantitative real time PCR: Total RNA was isolated from cells and tissues, and cDNA was synthesized using a reverse transcriptase and was then reacted with cytokine primers to be analyzed, followed by PCR and real-time PCR. The RT-PCR products were subjected to electrophoresis using 1.5% agarose gel for analysis.
A. Experimental animal: 5-week-old male BALB/c mice obtained from. Daehan Biolink (Eumseong, Chungbuk) were adapted for 2 weeks in a clean animal breeding room (small animal room #2-302) at Hoseo University Safety Evaluation Center, set under environmental conditions: temperature of 22±3° C.; relative humidity of 50±20%; ventilation frequency of 10 to 15 times/hour, illumination for 12 hours; and illuminance of 150 Lux to 300 Lux, and then used in an experiment.
4 experimental animals were accommodated in each of polycarbonate cages (270×500×200 mm, KYERYONG SCIENCE). Feed (5053-Picolab Rodent 20, PMI Nutrition International) and drinking water (ultraviolet sterilized filtered water) were allowed to ingest freely. All procedures of the experiment were conducted after approved by the Ethics Committee of the Hoseo University Safety Evaluation Center (HTRC-15-19).
B. Dermatitis induction: Hairs on the back of each mouse were removed and maintained for 24 hours, and then 150 μl of a 1% 2,4-dinitrochlorobenzene(DNCB) solution (acetone: olive oil=3:1) was applied on the hair-removed site once a week for 3 weeks. After week 3, the DNCB solution was applied on the site twice a week for 3 weeks to induce atopic dermatitis.
C. Treatment: Mice were divided into 6 groups, and 0.5% DMSO was applied on animals as a control and 200 μl of each of 0.01 μM, 0.1 μM, and 1 μM test material was applied on animals as experimental groups for 3 weeks. 50 μl of 0.1% dexamethasone dissolved in a crude alcohol was applied on animals as a positive control at intervals of 2 days.
D. Biopsy: After application of the test material was completed, the dorsal skin of each experimental animal was incised under heart anesthesia, some of them were rapidly frozen using liquid nitrogen and stored at −70° C. before analysis, and the remainder was fixed with 10% neutral buffered formalin for 24 hours. The fixed tissues were prepared into slides through general tissue processing, and then subjected to hematoxylin & eosin (H&E) staining to measure the thickness of the epidermal layer. In addition, toluidine blue staining was performed to observe a quantitative change of mast cells. While the stained tissues were observed by an optical microscope, the thickness of the epidermal layer and the number of mast cells were obtained using an image analyzer (Olympus DP-21).
E. IgE level measurement: IgE concentration in blood was measured by (SHIBAYAGI, Japan) using serum collected when autopsy was performed. 50 μL of an IgE standard solution and the sample were placed in antibody-attached 96 wells and allowed to react for 2 hours, and then 50 μL of a biotin-conjugated anti-IgE antibody solution was added to each well and allowed to react for 2 hours. Thereafter, the resulting sample was reacted with a HRP-avidin solution for 1 hour and a chromogenic substrate (TBM) reagent for 20 minutes, and the reaction was stopped using a reaction stopper. Absorbance of the sample was measured at 450 nm using ELISA (Molecular devices Emax).

caspase-1 = target: T1, caspase-1 (Homo sapiens, UniProt P29466); assay: Caspase-1 assay using HMC-1 cell extracts; format: cell-based
T1 construct: a caspase-1 assay was conducted using cell extracts; endogenous in cells; host or cells: HMC-1 (human mast cells)
T1 sequence (P29466 120-297 limits assumed): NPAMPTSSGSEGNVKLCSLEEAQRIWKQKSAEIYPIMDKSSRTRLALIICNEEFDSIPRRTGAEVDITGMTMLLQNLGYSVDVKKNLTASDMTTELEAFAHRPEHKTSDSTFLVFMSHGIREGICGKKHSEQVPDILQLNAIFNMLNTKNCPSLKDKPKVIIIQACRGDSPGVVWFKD
T1 sequence (P29466 317-404 limits assumed): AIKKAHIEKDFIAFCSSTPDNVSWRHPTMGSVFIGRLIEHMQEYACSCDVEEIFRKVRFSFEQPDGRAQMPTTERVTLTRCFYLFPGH

[3] = target: T2, human recombinant caspase-1 (Homo sapiens, UniProt P29466); assay: Recombinant caspase-1 activity assay (kit); format: biochemical; conditions: caspase-1 assay kit
T2 sequence (P29466 120-404): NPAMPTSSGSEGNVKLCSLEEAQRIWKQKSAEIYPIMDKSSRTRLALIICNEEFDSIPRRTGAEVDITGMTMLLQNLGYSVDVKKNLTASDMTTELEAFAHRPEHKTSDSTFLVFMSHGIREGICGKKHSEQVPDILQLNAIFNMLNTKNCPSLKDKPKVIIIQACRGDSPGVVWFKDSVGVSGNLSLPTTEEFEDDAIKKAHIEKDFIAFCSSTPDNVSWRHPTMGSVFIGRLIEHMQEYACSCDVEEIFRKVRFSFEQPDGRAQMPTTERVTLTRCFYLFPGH
Method: (4) Caspase-1 assay: Recombinant caspase-1 and a drug were allowed to react, and then activity measurement was performed using a caspase-1 assay kit (R&D Systems Inc., Minneapolis, Minn., USA).
Recombinant caspase-1 and a drug were allowed to react, and then activity was measured using a caspase-1 assay kit (R&D Systems Inc., Minneapolis, Minn., USA).

HaCat cells = assay: Cytotoxicity (MTT-assay) in HaCat cells; format: cell-based, human
Method: (1) Cell culture: A human skin cell line (HaCat cells) was cultured in RPMI containing 10% FBS at 37° C. and 5% CO2. Candidate materials were dissolved in DMSO, and then filtered using a 0.22 μm filter. The resulting candidate materials were diluted with DMSO and the HaCat cells were treated therewith.
(2) Cytotoxicity (MTT-assay): After stabilizing HaCat cells (3×10^5 cells/ml) for 1 hour, they were treated with candidate materials variously beginning from a concentration of 10 μM, followed by treatment with Poly (I:C) for 8 hours. Then, the medium was replaced by a fresh medium, 5 mg/ml of an MTT solution was then added thereto, and the mast cells were incubated at 37° C. for 4 hours. 250 DMSO was added to the HaCat cells, MTT formazan was extracted therefrom, and absorbance of each well was measured at 540 nm using an ELISA reader.

DSS-induced animal model = assay: DSS-induced inflammatory bowel disease (enteritis) model; format: in vivo, C57BL/6 mice
Method: Six-week-old female SPF (Specific pathogen-free) C57BL/6 mice were purchased from DuPont Biotech. The mice were allowed to freely ingest a feed and water after an acclimation period of 1 week in an animal room of Hoseo University Safety Evaluation Center maintained at temperature of 21±3° C., humidity of 50±20%, and light/darkness cycle of 12 h/12 h. All procedures in the present animal experiment were conducted after approved by the Animal Experimental Ethics Committee of Hoseo University (HTRC-15-19, and HTRC-16-22(2)).
Dextran sodium sulfate (cat no 160110 by Mpbio. corn) as a colitis inducer was diluted to 3% concentration in drinking water and orally administered to mice to induce enteritis. The mice were divided into 6 groups and DW was administered to the animals of a control, and 1.0 mg/kg and 10 mg/kg of the test material were orally administered to the animals of the experimental groups once a day for […]. Sulfasalazine (100 mg/kg) dissolved in crude olive oil was orally administered once a day to the animals of a positive control. In acute cases, disease progression levels were examined after 5 days of administration. In chronic cases, disease progression levels were examined 15 days and 30 days after the 5 days of administration (reference: Toxicology Reports 2 (2015) 10391045-Caryophyllene attenuates dextran sulfate sodium-induced colitis in mice via modulation of gene expression associated mainly with colon inflammation).
Body weights were measured once for 5 days or more during the test period. The measured weights were quantified as 0 point if there was no difference compared with the normal control, 1 point for weight loss rate of 15%, 2 points for 510%, 3 points for 1015%, and 4 points for >15%. Feces observation was performed to examine the incidence of diarrhea, and the results thereof were quantified as scores (0, normal stool; 1, mildly soft stool; 2, very soft stool; 3, very soft stool (no regular shape); 4, watery stool).
Rectal tissues and blood were collected from 5 individuals for each of the autopsy times. Yuhan ketamine 50® (Yuhan Corporation, Korean) and Rompun (Bayer, USA) were mixed in a ratio of 3:1, and then used to anesthetize animals via muscular injection. Each anesthetized animal was subjected to laparotomy to collect blood from the abdominal artery, and after blood collection, the abdominal artery was cut and subjected to venesection and death to collect rectal tissue. The length and weight of the collected tissue were measured to calculate weight per 1 cm of the tissue. Some of the collected tissues were used in biopsy, and some thereof were frozen in liquid nitrogen and stored at −70° C. before analysis. […]

Structure (SMILES): O=C([O-])CC(=O)NC12CC3CC(CC(C3)C1)C2.[Na+] [IPS-07003]
- TSLP secretion from mast cells [1]: significantly inhibited
- cytotoxicity (MTT-assay) (HMC-1 cells): did not exhibit cytotoxicity

Structure (SMILES): C[C@@H]1C[C@H]2[C@@H]3CCC4=CC(=O)C=C[C@]4(C)[C@@]3(F)[C@@H](O)C[C@]2(C)[C@@]1(O)C(=O)CO [dexamethasone, reference compound]
- epidermal thickness ([2]; DNCB group 87.1±13.0, normal 24.5±10.3): 39.9±9.4 μm
- blood IgE level ([2]; DNCB group 790.0±151.8, no statistical significance): 703.8±86.5

Structure (SMILES): [H]/N=C(\N/C(=N/[H])Nc1ccc(Cl)cc1)NC(C)C [IPS-07004]
- caspase-1 activity in HMC-1 cells (caspase-1): inhibits
- recombinant caspase-1 activity [3]: inhibits
- cytotoxicity (MTT-assay) (HaCat cells): no cytotoxicity
- enteritis inhibitory activity (ratio of enteric weight to enteric length, wt/cm) (DSS-induced animal model; 10 mg/kg oral, compared to DSS control): superior enteritis inhibitory activity
- melena (DSS-induced animal model; compared to the DSS-induced group, oral): significantly decreased

Structure (SMILES): COc1ccc(NS(=O)(=O)c2cccc(S(=O)(=O)c3cccc(S(=O)(=O)Nc4ccc(OC)cc4)c3)c2)cc1 [IPS-07002]
- TSLP secretion from mast cells [1]: significantly inhibited
- cytotoxicity (MTT-assay) (HMC-1 cells): did not exhibit cytotoxicity
